Measurements: patent US20240368150A1 (Hoffmann-La Roche Inc., priority 2021, published 2024)
Like-named read-outs stand apart in the source and are kept apart here.

Columns and labels:
primary human T-cells [1] = test system: primary human T-cells
Protocol: As readouts for T-cell activation, IL2 secretion after 24 hours and proliferation after 5 days was measured. Increases in IL2 secretion and proliferation upon compound treatment were assessed as the % of the maximum of reference compound A1. […] As a counter screen and to make sure that no unwanted TCR-independent activation was triggered, PBS conditions were run for all compounds.
For coating of plates, PBS++ with PBS−− or PBS++ with CD3 antibody (concentration depending on donor and determined by CD3 titrations) was added 100 μl/well to Poly-D Lysine coated 96-well plates. Plates were sealed and incubated at room temperature for 3 hours on a table-top rocking platform. After incubation, plates were washed once with PBS−− and filled with 40 μl/well culture medium only. Compounds were then added (see next section) to medium only plates. After 3 hours of culturing the T-cells, cells were filtered through a cell strainer (Miltenyi Biotech, #130-041-407), counted again and concentration was adjusted to 1.25 Mio/ml.
Cells were then seeded 80 μl/well to the 40 μl/well including dispensed compounds according to plate layout. By adding cells, compounds were further diluted 1:3, and resulting in 100 k cells/120 μl/well. After 24 hours 40 μl of supernatant was collected carefully from the top while not disturbing the cells and transferred into a round bottom 96 well plate. Collected and frozen supernatant was used for detection of IL2 using the IL-2 Human ProQuantum Immunoassay Kit (Invitrogen) or using the Human IL-2 ELISA Kit (Thermo Fisher).
Compounds were added in a 5 or 6pt dose response with the Tecan D300e Digital Dispenser, all conditions 3 times more concentrated than the end-concentration, since cells are added afterwards (80 μl cells to 40 μl prepared medium with treatment). The DR was starting at 20 μM or 10 μM final top concentration and a dilution factor of 3.333. The positive control was the reference compound A1 that was added in a dose response as well, additionally to 3 wells of only 20 μM representing the positive stimulator control. All wells were normalized with DMSO to a final concentration of 0.6% (0.2% end-concentration).
The immunoassay is done following the manufacturer's manual (Invitrogen, #A35603). Additional information: For the immunoassay, MicroAmp™ EnduraPlate™ Optical 384-Well plates are used. Frozen supernatant is thawed and centrifuged for 5 minutes at 1000×g, both steps at 4° C. After centrifugation, required sample amount is taken from the top, and in a separate LightCycler V-bottom plate (working plate) diluted with assay dilution buffer, dilution factor depending on the PBS or CD3 condition but at least 1:3. IL-2 standard and blanks are prepared in the same V-bottom plate, standard with a range of 0.0128-5000 pg/ml (extended version). After preparation, 5 μl of sample dilutions or standard/blanks are transferred to the optical 384-well plate (assay plate) and the 10 μl reaction protocol is being followed. For measurement, the QuantStudio 12K Flex system is used.
ELISA is done following the manufacturer's manual (Thermo Fisher Scientific, #88-7025-88). Additional information: For the ELISA Nunc MaxiSorp 96 well plates are used. Frozen supernatant is thawed and centrifuged for 5 minutes at 1000×g, both steps at 4° C. After that, required sample amount is taken from the top, and in a separate V-bottom plate diluted with ELISA diluent, dilution factor depending on the PBS or CD3 condition. IL-2 standard and blanks are prepared in the same V-bottom plate. After preparation, 50 μl of sample dilutions and 100 μl of standard or blanks are transferred to the Nunc plates.
CD3 and PBS plates were analysed separately in Genedata Screener using Roche Normalization PCT_POS_CTRL with DMSO set as Neutral Control and 20 μM of the reference compound A1 set as Stimulator Control/100%.
For CD3 conditions EC50 and Emax of the fitted sigmoidal curve were reported.

primary human T-cells [2] = assay: Proliferation assay after 5 days (CellTiter-Glo, CD3 stimulation; PBS counter screen); format: cell-based; conditions: Homo sapiens, T-cell, 120 h; for Emax: read-out: Emax proliferation (% activation); for EC50: read-out: Tcell Proliferation CD3 EC50
In short: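 Luminescent ATP detection (CellTiter-Glo 2.0) quantified cell number 5 days after compounds went onto medium-only plates. Wells showing visible toxicity or precipitate were noted beforehand, and compounds that stimulated unstimulated cells or lowered viability were flagged.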

[3] = CD3 stimulation, 5 days, normalized to reference compound A1 as stimulator control = 100%, DMSO neutral control
[4] = primary human T-cells, CD3 stimulation, CellTiter-Glo after 5 days, EC50 of fitted sigmoidal curve

Structure (SMILES): COC1(c2nnc(-c3ccc4c(c3)N(Cc3ccc(Cl)cc3)C(=O)[C@@H](N)CS4(=O)=O)o2)CCOCC1 [Example 371, (3R)-3-amino-5-[(4-chlorophenyl)methyl]-7-[5-(4-methoxytetrahydropyran-4-yl)-1,3,4-oxadiazol-2-yl]-1,1-dioxo-2,3-dihydro-1λ^6,5-benzothiazepin-4-one]
- EC50 (primary human T-cells [1]): > 10000 nM
- Emax (primary human T-cells [2]; [3]): 84%
- EC50 (primary human T-cells [2]; [4]): 2760 nM

Structure (SMILES): COC(C)(c1nnc(-c2ccc3c(c2)N(Cc2ccc(Cl)cc2)C(=O)[C@@H](N)CS3(=O)=O)o1)C(F)(F)F (stereo partly drawn) [Example 372, (3R)-3-amino-5-[(4-chlorophenyl)methyl]-1,1-dioxo-7-[5-(2,2,2-trifluoro-1-methoxy-1-methyl-ethyl)-1,3,4-oxadiazol-2-yl]-2,3-dihydro-1λ^6,5-benzothiazepin-4-one]
- EC50 (primary human T-cells [1]): 1290 nM
- Emax (primary human T-cells [2]; [3]): 118%
- EC50 (primary human T-cells [2]; [4]): 367 nM

Structure (SMILES): N[C@H]1CS(=O)(=O)c2ccc(-c3nnc(-c4ccccc4)o3)cc2N(Cc2ccc(Cl)cc2)C1=O [Example 374, (3R)-3-amino-5-[(4-chlorophenyl)methyl]-1,1-dioxo-7-(5-phenyl-1,3,4-oxadiazol-2-yl)-2,3-dihydro-1λ^6,5-benzothiazepin-4-one]
- EC50 (primary human T-cells [1]): 15100 nM
- Emax (primary human T-cells [2]; [3]): 52%
- EC50 (primary human T-cells [2]; [4]): > 10000 nM

Structure (SMILES): N[C@H]1CS(=O)(=O)c2ccc(-c3nnc(-c4ccc(F)cc4)o3)cc2N(Cc2ccc(Cl)cc2)C1=O [Example 375, (3R)-3-amino-5-[(4-chlorophenyl)methyl]-7-[5-(4-fluorophenyl)-1,3,4-oxadiazol-2-yl]-1,1-dioxo-2,3-dihydro-1λ^6,5-benzothiazepin-4-one]
- EC50 (primary human T-cells [1]): 461 nM
- Emax (primary human T-cells [2]; [3]): 62%
- EC50 (primary human T-cells [2]; [4]): 817 nM

Structure (SMILES): N[C@H]1CS(=O)(=O)c2ccc(-c3nnc(-c4ccccc4F)o3)cc2N(Cc2ccc(Cl)cc2)C1=O [Example 376, (3R)-3-amino-5-[(4-chlorophenyl)methyl]-7-[5-(2-fluorophenyl)-1,3,4-oxadiazol-2-yl]-1,1-dioxo-2,3-dihydro-1λ^6,5-benzothiazepin-4-one]
- EC50 (primary human T-cells [1]): 3200 nM
- Emax (primary human T-cells [2]; [3]): 70%
- EC50 (primary human T-cells [2]; [4]): 4460 nM

Structure (SMILES): Cc1ccc(-c2nnc(-c3ccc4c(c3)N(Cc3ccc(Cl)cc3)C(=O)[C@@H](N)CS4(=O)=O)o2)cc1 [Example 377, (3R)-3-amino-5-[(4-chlorophenyl)methyl]-1,1-dioxo-7-[5-(p-tolyl)-1,3,4-oxadiazol-2-yl]-2,3-dihydro-1λ^6,5-benzothiazepin-4-one]
- EC50 (primary human T-cells [1]): 1720 nM
- Emax (primary human T-cells [2]; [3]): 38%
- EC50 (primary human T-cells [2]; [4]): 319 nM

Structure (SMILES): COC1(c2nnc(-c3ccc4c(c3)N(Cc3ccc(Cl)cc3)C(=O)[C@@H](N)CS4(=O)=O)o2)CCC(F)(F)CC1 [Example 378, (3R)-3-amino-5-[(4-chlorophenyl)methyl]-7-[5-(4,4-difluoro-1-methoxy-cyclohexyl)-1,3,4-oxadiazol-2-yl]-1,1-dioxo-2,3-dihydro-1λ^6,5-benzothiazepin-4-one]
- EC50 (primary human T-cells [1]): > 10000 nM
- Emax (primary human T-cells [2]; [3]): 74%
- EC50 (primary human T-cells [2]; [4]): 447 nM

Structure (SMILES): [2H]C([2H])([2H])C(c1nnc(-c2ccc3c(c2)N(Cc2ccc(Cl)cc2)C(=O)[C@@H](N)CS3(=O)=O)o1)(C([2H])([2H])[2H])C([2H])([2H])[2H] [Example 380, (3R)-3-amino-5-[(4-chlorophenyl)methyl]-1,1-dioxo-7-[5-[2,2,2-trideuterio-1,1-bis(trideuteriomethyl)ethyl]-1,3,4-oxadiazol-2-yl]-2,3-dihydro-1λ^6,5-benzothiazepin-4-one]
- EC50 (primary human T-cells [1]): 819 nM
- Emax (primary human T-cells [2]; [3]): 132%
- EC50 (primary human T-cells [2]; [4]): 613 nM

Structure (SMILES): CC1(c2nnc(-c3ccc4c(c3)N(Cc3ccc(Cl)cc3)C(=O)[C@@H](N)CS4(=O)=O)o2)CCN(C(=O)OCC(F)(F)F)CC1 [Example 382, 2,2,2-trifluoroethyl 4-[5-[(3R)-3-amino-5-[(4-chlorophenyl)methyl]-1,1,4-trioxo-2,3-dihydro-1λ^6,5-benzothiazepin-7-yl]-1,3,4-oxadiazol-2-yl]-4-methyl-piperidine-1-carboxylate]
- EC50 (primary human T-cells [1]): 1680 nM
- Emax (primary human T-cells [2]; [3]): 100%
- EC50 (primary human T-cells [2]; [4]): 893 nM

Structure (SMILES): Cc1ccc(OC(=O)N2CCC(C)(c3nnc(-c4ccc5c(c4)N(Cc4ccc(Cl)cc4)C(=O)[C@@H](N)CS5(=O)=O)o3)CC2)cn1 [Example 383, (6-methyl-3-pyridyl) 4-[5-[(3R)-3-amino-5-[(4-chlorophenyl)methyl]-1,1,4-trioxo-2,3-dihydro-1λ^6,5-benzothiazepin-7-yl]-1,3,4-oxadiazol-2-yl]-4-methyl-piperidine-1-carboxylate]
- EC50 (primary human T-cells [1]): 857 nM
- Emax (primary human T-cells [2]): 94%
- EC50 (primary human T-cells [2]): 1320 nM

Structure (SMILES): CN1CC(c2nnc(-c3ccc4c(c3)N(Cc3ccc(Cl)cc3)C(=O)[C@@H](N)CS4(=O)=O)o2)CC(F)(F)C1 (stereo partly drawn) [Example 385, (3R)-3-amino-5-[(4-chlorophenyl)methyl]-7-[5-(5,5-difluoro-1-methyl-3-piperidyl)-1,3,4-oxadiazol-2-yl]-1,1-dioxo-2,3-dihydro-1λ^6,5-benzothiazepin-4-one]
- EC50 (primary human T-cells [1]): 895 nM
- Emax (primary human T-cells [2]; [3]): 106%
- EC50 (primary human T-cells [2]; [4]): 1490 nM

Structure (SMILES): N[C@H]1CS(=O)(=O)c2ccc(-c3nnc(C4CC5(CC(O)C5)C4)o3)cc2N(Cc2ccc(Cl)cc2)C1=O (stereo partly drawn) [Example 387, (3R)-3-amino-5-[(4-chlorophenyl)methyl]-7-[5-(2-hydroxyspiro[3.3]heptan-6-yl)-1,3,4-oxadiazol-2-yl]-1,1-dioxo-2,3-dihydro-1λ^6,5-benzothiazepin-4-one]
- EC50 (primary human T-cells [1]): 2280 nM
- Emax (primary human T-cells [2]; [3]): 157%
- EC50 (primary human T-cells [2]; [4]): 1120 nM

Structure (SMILES): COC(F)(c1nnc(-c2ccc3c(c2)N(Cc2ccc(Cl)cc2)C(=O)[C@@H](N)CS3(=O)=O)o1)C(F)(F)F (stereo partly drawn) [Example 388, (3R)-3-amino-5-[(4-chlorophenyl)methyl]-1,1-dioxo-7-[5-(1,2,2,2-tetrafluoro-1-methoxy-ethyl)-1,3,4-oxadiazol-2-yl]-2,3-dihydro-1λ^6,5-benzothiazepin-4-one]
- EC50 (primary human T-cells [1]): 331 nM
- Emax (primary human T-cells [2]; [3]): 129%
- EC50 (primary human T-cells [2]; [4]): 166 nM

Structure (SMILES): COC(=O)N1CCC(C#N)(c2nnc(-c3ccc4c(c3)N(Cc3ccc(Cl)cc3)C(=O)[C@@H](N)CS4(=O)=O)o2)CC1 [Example 389, methyl 4-[5-[(3R)-3-amino-5-[(4-chlorophenyl)methyl]-1,1,4-trioxo-2,3-dihydro-1λ^6,5-benzothiazepin-7-yl]-1,3,4-oxadiazol-2-yl]-4-cyano-piperidine-1-carboxylate]
- EC50 (primary human T-cells [1]): > 2730 nM
- Emax (primary human T-cells [2]; [3]): 80%
- EC50 (primary human T-cells [2]; [4]): 1990 nM

Structure (SMILES): CC(F)(F)CNc1nnc(-c2ccc3c(c2)N(Cc2ccc(Cl)cc2)C(=O)[C@@H](N)CS3(=O)=O)o1 [Example 393, (3R)-3-amino-5-[(4-chlorophenyl)methyl]-7-[5-(2,2-difluoropropylamino)-1,3,4-oxadiazol-2-yl]-1,1-dioxo-2,3-dihydro-1λ^6,5-benzothiazepin-4-one]
- EC50 (primary human T-cells [1]): 4010 nM
- Emax (primary human T-cells [2]; [3]): 51%
- EC50 (primary human T-cells [2]; [4]): 2820 nM

Structure (SMILES): CN(c1nnc(-c2ccc3c(c2)N(Cc2ccc(Cl)cc2)C(=O)[C@@H](N)CS3(=O)=O)o1)C1CC1 [Example 394, (3R)-3-amino-5-[(4-chlorophenyl)methyl]-7-[5-[cyclopropyl(methyl)amino]-1,3,4-oxadiazol-2-yl]-1,1-dioxo-2,3-dihydro-1λ^6,5-benzothiazepin-4-one]
- EC50 (primary human T-cells [1]): 3090 nM
- Emax (primary human T-cells [2]; [3]): 98%
- EC50 (primary human T-cells [2]; [4]): 1770 nM

Structure (SMILES): CC1(C)CN(c2nnc(-c3ccc4c(c3)N(Cc3ccc(Cl)cc3)C(=O)[C@@H](N)CS4(=O)=O)o2)CCO1 [Example 395, (3R)-3-amino-5-[(4-chlorophenyl)methyl]-7-[5-(2,2-dimethylmorpholin-4-yl)-1,3,4-oxadiazol-2-yl]-1,1-dioxo-2,3-dihydro-1λ^6,5-benzothiazepin-4-one]
- EC50 (primary human T-cells [1]): 1120 nM
- Emax (primary human T-cells [2]; [3]): 88%
- EC50 (primary human T-cells [2]; [4]): 517 nM

Structure (SMILES): N[C@H]1CS(=O)(=O)c2ccc(-c3nnc(N4CCC(F)(F)CC4)o3)cc2N(Cc2ccc(Cl)cc2)C1=O [Example 396, (3R)-3-amino-5-[(4-chlorophenyl)methyl]-7-[5-(4,4-difluoro-1-piperidyl)-1,3,4-oxadiazol-2-yl]-1,1-dioxo-2,3-dihydro-1λ^6,5-benzothiazepin-4-one]
- EC50 (primary human T-cells [1]): 937 nM
- Emax (primary human T-cells [2]; [3]): 87%
- EC50 (primary human T-cells [2]; [4]): 526 nM

Structure (SMILES): N[C@H]1CS(=O)(=O)c2ccc(-c3nnc(N4CC5(CCC5)C4)o3)cc2N(Cc2ccc(Cl)cc2)C1=O [Example 398, (3R)-3-amino-7-[5-(2-azaspiro[3.3]heptan-2-yl)-1,3,4-oxadiazol-2-yl]-5-[(4-chlorophenyl)methyl]-1,1-dioxo-2,3-dihydro-1λ^6,5-benzothiazepin-4-one]
- EC50 (primary human T-cells [1]): 879 nM
- Emax (primary human T-cells [2]; [3]): 115%
- EC50 (primary human T-cells [2]; [4]): 3480 nM

Structure (SMILES): CC(C)Nc1nnc(-c2ccc3c(c2)N(Cc2ccc(Cl)cc2)C(=O)[C@@H](N)CS3(=O)=O)o1 [Example 399, (3R)-3-amino-5-[(4-chlorophenyl)methyl]-7-[5-(isopropylamino)-1,3,4-oxadiazol-2-yl]-1,1-dioxo-2,3-dihydro-1λ^6,5-benzothiazepin-4-one]
- EC50 (primary human T-cells [1]): 3580 nM
- Emax (primary human T-cells [2]; [3]): 73%
- EC50 (primary human T-cells [2]; [4]): 3460 nM

Structure (SMILES): N[C@H]1CS(=O)(=O)c2ccc(-c3nnc(N4CC(CO)(CCl)C4)o3)cc2N(Cc2ccc(Cl)cc2)C1=O [Example 400, (3R)-3-amino-7-[5-[3-(chloromethyl)-3-(hydroxymethyl)azetidin-1-yl]-1,3,4-oxadiazol-2-yl]-5-[(4-chlorophenyl)methyl]-1,1-dioxo-2,3-dihydro-1λ^6,5-benzothiazepin-4-one]
- EC50 (primary human T-cells [1]): 4050 nM
- Emax (primary human T-cells [2]; [3]): 72%
- EC50 (primary human T-cells [2]; [4]): 5220 nM

Structure (SMILES): N[C@H]1CS(=O)(=O)c2ccc(-c3nnc(N4CC5(C4)CC(F)(F)C5)o3)cc2N(Cc2ccc(Cl)cc2)C1=O [Example 402, (3R)-3-amino-5-[(4-chlorophenyl)methyl]-7-[5-(6,6-difluoro-2-azaspiro[3.3]heptan-2-yl)-1,3,4-oxadiazol-2-yl]-1,1-dioxo-2,3-dihydro-1λ^6,5-benzothiazepin-4-one]
- EC50 (primary human T-cells [1]): 1640 nM
- Emax (primary human T-cells [2]; [3]): 93%
- EC50 (primary human T-cells [2]; [4]): 928 nM
